“And” between values parts separate entries of the source, which are not always exact repeats. Identical values can stand only once. “Also recorded” adds a separate entry of the source.
Key:
Assay type in all cases: in vivo, mouse
[1] = Plasma levels of DHA in mice fed DHA; conditions: for Plasma level of DHA: values for two different mice
Description: Mouse pancreatic acinar and lung cell suspensions were prepared from wild type (n=3) and CFTR−/− mice (n=3) by enzymatic and mechanical dissociation. In addition, brain, kidney, heart, spleen, and blood were sonicated in 0.3M sucrose buffer. Membrane lipids were extracted from cell and organ preparations with 20 volumes of chloroform-methanol 2:1 (v/v), transmethylated with 0.5 mL of 0.1 N methanolic-NaOH/BF3 reagent, and the resulting fatty acid methyl esters analyzed by gas chromatography/mass spectrometry (GC/MS). In a different set of experiments, lipids were fractionated by aminopropyl column chromatography into triglycerides, cholesterol esters, and phosphoglycerides and the fatty acid composition of each lipid class determined by a combination of enzymatic hydrolysis, transmethylation, and GC/MS.
Cystic fibrosis (UNC strain) and wild type mice (12-20 grams body weight) were fed with a complete liquid enteral formulation (Peptamen™, Nestle Clinical Nutrition, Inc.) supplemented with different quantities of the DHA-containing formulation Neuromins (Nature's Way Products Inc., Springville, Utah). DHA content in the Neuromins formulation was 100 mg per 500 mg of formulation. Mice were fed once a day at about 11 a.m., seven days a week with 20 ml of Peptamen™ supplemented with the various amounts of either Neuramins, free DHA (Sigma Chemical Co., MO) or DHA-ethyl ester (Nu-Check-Prep, Inc. MN) ranging from 0.5 mg/day of DHA to 40 mg/day of DHA.
Plasma levels of DHA in CF and wild-type mice were measured as described above in the method section.
Since the pancreas and the lung are the two primary organs affected in cystic fibrosis, AA and DHA levels in cell preparations of these organs and in wild-type and CFTR−/− mice were quantitated by GC/MS analysis. Lipids were extracted from cell suspensions, tissue homogenates, and blood plasma with 6 volumes of chloroform-methanol (2:1, v/v). The resulting emulsions were centrifuged at 600 g for 3 min and the lower phase containing the lipids was collected. This procedure was repeated twice and the lower phases from the two extractions combined. Aliquots of 30 μL of heptadecanoic acid (17:0) (1 mg/ml) were added to the extracts and used as an internal standard. Samples were evaporated to dryness under nitrogen. The resulting lipids were subsequently transmethylated using the 0.1N methanolic NaOH/boron tri fluoride reagent (Alvarez et al., (1995) Mol. Reprod. Dev. 42:334-346). The resulting fatty acid methyl esters were analyzed by Hewlett Packard GC/MS mounted with a WCOT capillary column (Supelcowax-10, 30 m×0.53 mm I.D., 1 μm film thickness) with initial and final temperatures in the column oven of 150° C. and 250° C., respectively, programmed to increase at a rate of 10° C./min. Fatty acid methyl ester peaks were identified by comparison of retention times of standard fatty acid mixtures and by mass spectrometry, and quantified using methylheptadecanoate as the internal standard. In some studies, the different lipid classes including cholesterol esters, triglycerides, free fatty acids, and glycerolipids, were also fractionated from cell and tissue extracts by aminopropyl column chromatography and the corresponding fatty acid methyl esters prepared and analyzed (Alvarez et al., (1992) J. Chromatogr. B. 577:142-145). In order to determine the fatty acids bound to the sn-2 position of lipids, the phospholipid fraction obtained by aminopropyl column chromatography was incubated at 37° C. for 15 min in 0.5 ml of PBS containing 250 units of phospholipase A2, and the resulting fatty acids methylated and analyzed by GC/MS (Alvarez et al., (1995) Mol. Reprod. Dev. 42:334-346).

[2] = system: wild-type pregnant mice; experiment: DHA administration to wild-type pregnant mice: fetal lung surfactant (DPPC), fetal lung and brain DHA
Source text: The invention also provides a method for improving the amount of fetal lung surfactant in a mouse model. It appears that this is accomplished by upregulating fetal lung surfactant biosynthesis during pregnancy. This method again utilizes giving high doses of DHA which increases DHA and fetal surfactant levels in the fetal lung. Gestation in mice lasts about 19.5 days and previous reports have shown that surfactant levels in amniotic fluid are not detected until after day 16.5, equivalent to about 30 to 32 weeks gestational age in humans. Wild-type C57 mice were bred and identification of the cervical plug was used to determine the occurrence of pregnancy and gestational age. Beginning on day 9.5 of pregnancy (equivalent to about 24 weeks of gestational age in humans), mice were placed on Peptamen™ ±DHA for one week at different doses and sacrificed on day 16.5. Following sacrifice, amniotic fluid was aspirated from the amniotic sacs, and DPPC concentration determined by micro-HPTLC. In a different set of experiments, fetal lung and brain were removed, homogenized, lipids extracted with chloroform-methanol, and fatty acids transmethylated and analyzed by gas chromatography.

[3] = Tolerability observations in mice given DHA
[4] = day 16.5, 20 mg/day DHA to the pregnant mouse from day 9.5

**Q.** For `CC/C=C\C/C=C\C/C=C\C/C=C\C/C=C\C/C=C\CCC(=O)O` [DHA, docosahexaenoic acid], which “Plasma level of DHA” value ([1]; CF mice, 0.5 mg/day DHA) is on record?
**A.** 41 µg/mL and 40 µg/mL

**Q.** What about the “Plasma level of DHA” value ([1]; CF mice, 2 mg/day DHA) of the same compound?
**A.** 99 µg/mL and 77 µg/mL

**Q.** What about the “Plasma level of DHA” value ([1]; CF mice, 10 mg/day DHA) of the same compound?
**A.** 106 µg/mL and 133 µg/mL

**Q.** And the “Plasma level of DHA” value ([1]; CF mice, 40 mg/day DHA)?
**A.** 230 µg/mL and 263 µg/mL

**Q.** What about the “DHA plasma level reached” value ([1]; CFTR−/− mice, 35 to 40 mg/day DHA in liquid enteral formulation) of the same compound?
**A.** above 170 μg/ml

**Q.** And the “Plasma level of DHA” value ([1]; WT mice, 40 mg/day DHA)?
**A.** 214 µg/mL and 194 µg/mL

**Q.** What about the “DHA plasma levels in CFTR−/− versus wild-type mice” value ([1]; increasing oral doses of DHA, p=0.5, n=3 (FIG. 6)) of the same compound?
**A.** not significantly different

**Q.** And the “DHA in fetal brain (in words)” value ([2]; 10 or 20 mg DHA/day to preterm wild-type pregnant mice)?
**A.** significant increase in DHA in fetal brain

**Q.** What about the “DPPC concentration in amniotic fluid” value ([2]; day 16.5, 5 mg/day DHA from day 9.5) of the same compound?
**A.** 9.3 ± 2.6 µg/mL

**Q.** What about the “DHA concentration in fetal brain” value ([2]; day 16.5, 10 mg/day DHA to the pregnant mouse from day 9.5) of the same compound?
**A.** 15.6 ± 1.1 nmoles/mg protein

**Q.** What about the “DPPC concentration in amniotic fluid” value ([2]; day 16.5, 20 mg/day DHA from day 9.5) of the same compound?
**A.** 18.0 ± 3.6 µg/mL

**Q.** And the “DHA concentration in fetal brain” value [2, 4]?
**A.** 28.9 ± 1.9 nmoles/mg protein

**Q.** What about the “DHA concentration in fetal lung” value [2, 4] of the same compound?
**A.** 29.8 ± 5.5 nmoles/mg protein

**Q.** And the Placental transfer ([2]; pregnant mice)?
**A.** readily crosses the placenta

**Q.** And the Diarrhea ([3]; CFTR−/− or wild-type mice, 40 mg per day of DHA)?
**A.** No overt diarrhea

**Q.** What about the Side effects ([3]; treated pregnant mice and their newborns, monitored for up to one month) of the same compound?
**A.** no obvious long-term side effects; also recorded: no observed side effects

Source: US20040127567A1, “Novel methods for treating disorders in which docosahexaenoic acid (DHA) levels are affected” (Beth Israel Deaconess Medical Center, Inc., priority 1998, published 2004)
